Among the data in BindingDB's records for doi:10.1021/jm00020a026 (University of Michigan, 1995) are IC50 values, retold here.

pIC50: −log10 of the molar value.

A short description of this assay: antiviral activity in Human immunodeficiency virus-1 as reverse transcriptase activity in culture supernatant.

In turn, `Cc1cn([C@H]2C[C@H](N=[N+]=[N-])[C@@H](CO)O2)c(=O)[nH]c1=O` [1-((2R,4S,5S)-4-Azido-5-hydroxymethyl-tetrahydro-furan-2-yl)-5-methyl-1H-pyrimidine-2,4-dione] had a negative-log IC50 (pIC50) of 7.96.
`NC(=S)c1cn(C2OC(CO)C(O)C2F)c2ncnc(N)c12` (stereo unspecified) [4-Amino-7-(3-fluoro-4-hydroxy-5-hydroxymethyl-tetrahydro-furan-2-yl)-7H-pyrrolo[2,3-d]pyrimidine-5-carbothioic acid amide] showed a pIC50 of 7.15.
Then `NC(=O)c1cn(C2OC(CO)C(O)C2F)c2ncnc(N)c12` (stereo unspecified) [4-Amino-7-(3-fluoro-4-hydroxy-5-hydroxymethyl-tetrahydro-furan-2-yl)-7H-pyrrolo[2,3-d]pyrimidine-5-carboxylic acid amide], with 7.70; and `N#Cc1c(Br)n([C@H]2O[C@H](CO)[C@@H](O)[C@@H]2F)c2ncnc(N)c12`, with 4.49.
The figure for `N#Cc1cn([C@H]2O[C@H](CO)[C@@H](O)[C@@H]2F)c2ncnc(N)c12` is under 4.00.
Then `N#Cc1cn([C@@H]2O[C@H](CO)[C@@H](O)[C@@H]2F)c2ncnc(N)c12`, with 4.92.
